From patent US8815875B2 (Merck Sharp & Dohme Corp., priority 2008, dated 2014) come the findings set out here.

A value given as a limit tells only on which side of the number the result lay.

The target in one experiment is FABP4 (Homo sapiens, UniProt P15090). Put plainly: TdF (Temperature Dependence Fluorescence) assay, thermal shift, FABP4. It is filed as binding. In outline:
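Binding measured as ΔTm versus protein alone; binding constants derived by nonlinear fitting with ΔHL set to −7 kcal/mol and ΔCpL to zero.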

Another experiment concerns the target FABP5 (Homo sapiens, UniProt Q01469). As to the kind of experiment: TdCD (Temperature-dependent Circular Dichroism) assay, FABP5. The following applies: T=20° C.; compounds tested at 50 μM and 25 μM. It is filed as binding. The text has this:
[formula] (see Brandts et al and Mayhood et al, shown above) where ΔHL (T) is the van't Hoff enthalpy of ligand binding at temperature T and ΔCpL is the heat capacity upon ligand binding. For simplicity, the ΔCpL and ΔHL (T) were set to zero and −7 kcal/mol respectively. […] TdCD (Temperature-dependent Circular Dichroism) Assay for FABP3/4/5
JASCO 810 spectropolarimeter was used to measure Circular Dichroism (CD) spectra and temperature-dependent protein unfolding profiles. The instrument is equipped with a 6-cell piezoelectric temperature controller. Ellipticity was monitored at 226 nm as a function of temperature with a 1 mm path length cell. The scan rate was 1° C./min with a 4 s response time and 30 s equilibration between measurements.
10 mM stocks of individual compounds were made in 100% DMSO. […] DMSO was added to protein-alone (apo) samples to 1% to compensate for DMSO amounts in protein+ligand samples.
Briefly, the To (midpoint of unfolding for the unliganded protein) was calculated from best fit of the unfolding data to the equation below:
[formula] Where, Yobs is the observed ellipticity value at any temperature T, Yn and Yu are the predicted ellipticity values for fully folded and unfolded species, respectively, mn and mu are slope correction for changes in Yn and Yu with respect to changes in temperature. T0 is the midpoint temperature at which the unliganded protein unfolds and ΔHu and ΔCpu are the heat of unfolding and heat capacity of unfolding, respectively for the unliganded species.
In presence of ligand, the midpoint temperature (Tm) defines where the equilibrium concentrations of unfolded and folded species are equal. Incorporation of the unliganded free energy of binding and subsequent thermodynamic substitution yielded the binding constant of the ligand at the Tm value of unfolding:
[formula] where, T0 is the midpoint of unfolding for unliganded protein and Tm is the midpoint of unfolding in presence of ligand. [LTm] is free ligand at Tm.
Based on estimates for enthalpy of binding, ΔHL (estimated to be −7 kcal/mol) and ligand binding heat capacity ΔCpL (set to be zero), the ligand binding association constant (KL) at temperature T=20° C. were calculated as below.
A general note: CD spectra are sensitive to the conformation of chiral molecules.

FABP4, sequence (P15090 whole entry, species assumed): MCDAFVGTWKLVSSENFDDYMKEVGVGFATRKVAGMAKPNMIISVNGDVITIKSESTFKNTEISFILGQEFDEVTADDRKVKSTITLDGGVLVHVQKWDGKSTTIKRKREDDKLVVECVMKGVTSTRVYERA
FABP5, sequence (Q01469 whole entry, species assumed): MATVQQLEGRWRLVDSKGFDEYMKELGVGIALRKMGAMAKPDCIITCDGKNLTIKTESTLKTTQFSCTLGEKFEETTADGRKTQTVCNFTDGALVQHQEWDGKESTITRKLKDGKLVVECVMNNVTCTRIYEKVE

Take `O=c1cc(COc2csc(C(F)(F)F)c2)[nH]c2nc(-c3ccccc3)nn12` [1-5]: at FABP4, the “FABP4 TdF Kd” value is given as “B (0.5 ≦ B < 0.001 μM)”. The Kd on FABP5 was less than 500 nM.

As to `Cc1c(Cl)cccc1N(C)Cc1cc(=O)n2nc(-c3ccccc3)nc2[nH]1` [6-4], at FABP4, the “FABP4 TdF Kd” value is “B (0.5 ≦ B < 0.001 μM)”. In addition, the equilibrium dissociation constant (Kd) on FABP5 was greater than 500 nM.

For the molecule `O=c1cc(CN2CCc3c(Br)cccc32)[nH]c2nc(-c3ccccc3)nn12` [1-17], the “FABP4 TdF Kd” value at FABP4 is listed as “B (0.5 ≦ B < 0.001 μM)”. The same molecule registered a Kd on FABP5 greater than 500 nM.

For `O=c1c(Cl)c(COc2cccc(Cl)c2C2CC2)[nH]c2nc(-c3ccccc3)nn12` [24-1], at FABP5, the Kd was less than 500 nM.

As for `CC1(C)CCCC(OCc2cc(=O)n3nc(-c4ccccc4)nc3[nH]2)C1` (centres unmarked) [1-152], the “FABP4 TdF Kd” value on FABP4 is recorded as “B (0.5 ≦ B < 0.001 μM)”. The Kd on FABP5 was less than 500 nM.

As for `O=c1cc(COc2cccc(Cl)c2C2CCC2)[nH]c2nc(-c3ccccc3)nn12` [26-3], the “FABP4 TdF Kd” value at FABP4 is given as “B (0.5 ≦ B < 0.001 μM)”. The same molecule came in with a Kd on FABP5 of less than 500 nM.

With `O=c1cc(COc2cccc(Cl)c2C2CC2)[nH]c2nc(-c3ccccc3)nn12` [20-2], the “FABP4 TdF Kd” value at FABP4 is listed as “B (0.5 ≦ B < 0.001 μM)”. For the same molecule, the Kd on FABP5 was less than 500 nM.

Regarding `O=c1cc(CN2CCc3c(Cl)cccc32)[nH]c2nc(-c3ccccc3)nn12` [6-3], at FABP4, the “FABP4 TdF Kd” value is reported as “B (0.5 ≦ B < 0.001 μM)”. For the same molecule, at FABP5, the Kd was greater than 500 nM.

In the case of `COc1cccc(C2(NC(=O)C3(OCc4cc(=O)n5nc(-c6ccccc6)nc5[nH]4)CCCCC3)CC2)c1` [48-71], at FABP4, the “FABP4 TdF Kd” value was “B (0.5 ≦ B < 0.001 μM)”.

For the molecule `O=C(NC1(CO)CCCCC1)c1c(Cl)cccc1OCc1cc(=O)n2nc(-c3ccccc3)nc2[nH]1` [47-14], the “FABP4 TdF Kd” value at FABP4 was “B (0.5 ≦ B < 0.001 μM)”.

With `O=c1cc(CN2CCC(Cc3cccc(F)c3)C2)[nH]c2nc(-c3ccccc3)nn12` (centres unmarked) [1-89], the Kd at FABP4 was greater than 500 nM.

Consider `CC1(C)CN(Cc2cc(=O)n3nc(-c4ccccc4)nc3[nH]2)c2cccc(Br)c21` [39-5], for which the “FABP4 TdF Kd” value on FABP4 is listed as “B (0.5 ≦ B < 0.001 μM)”.

Consider `O=c1cc(CSc2cccc(Cl)c2C2CCC2)[nH]c2nc(-c3ccccc3)nn12` [52-5], for which, on FABP4, the Kd is no more than 1 nM.

The term Kd denotes a measure of binding affinity in units of concentration.
